Assay results published in US10308617B2, “Triazole benzamide derivatives and the compositions and methods of treatment regarding the same” (An2H Discovery Limited, priority 2016, dated 2019).
Where two headings read alike, the source gives them in different places.

How the values were obtained:
[1] = Microsomal Stability Assay, human liver microsomes; type: in vitro ADME; settings: pH 7.4, 1 μM compound, 1.0 mg/mL microsome, NADPH, read-out: HLM t1/2
Experimental: Compounds were also tested for metabolic stability in both rat liver microsomes (RLM) and human liver microsomes (HLM) and their half-life calculated (See Table 5). The assay was performed as follows. The total volume for each incubation was 250 μL. A 100 μM DMSO solution of compound (diluted from 10 mM stock solution) was spiked into 50 mM KH2PO4 (pH 7.4) buffer containing liver microsome at a concentration of 1.0 mg/mL. The reaction was initiated by the addition of 50 μL of 1 mM NADPH. The final concentration of each compound was 1 μM (1% DMSO). The positive controls, phenacetin for CYP1A2, diclofenac for CYP2C9, omeprazole for CYP2C19, dextromethorphan for CYP2D6 and midazolam for CYP3A4 were added to a separate tube with the final substrate concentrations of 1 μM (1% DMSO) for evaluating the enzyme activities in the liver microsomes. At 0, 15, 30 and 60 min, an aliquot of 15 μL reaction mixtures were removed and 200 μL of methanol (with internal standard of 25 ng/mL propranolol) was added to quench the reaction. The resulting mixture was centrifuged and supernatant was used for LC-MS/MS analysis.
The signals for each compound, or the metabolites for the probe substrates and the internal standard were integrated and the peak area ratios to internal standard were generated. Percent parent remaining at a specified timepoint was calculated based on the peak area ratios at time 0 (as 100%) for in vitro metabolic stability studies in liver microsome and hepatocyte. The observed rate constant (kobs) for the metabolism of substrates was calculated by plotting the natural log of percentage substrate remaining versus time of incubation with the slope being kobs. The half-life (T1/2) was calculated according to the following equation: T1/2=0.693/kobs

[2] = Oral Bioavailability (PO) and Pharmacokinetics Assay; type: in vivo, Sprague-Dawley rats; settings: rat; for AUC(0-t) / clearance / C0 (back-extrapolated initial plasma concentration after IV dose) / Vd: male, Sprague-Dawley, plasma; for C0 (back-extrapolated initial plasma concentration after IV dose): read-out: C0 or Cmax (ng/mL): C0; for Vd: iv, read-out: Vss; for Vd / Vss: 1 mg/kg
Experimental: The pharmacokinetics and oral bioavailability of various compounds was evaluated following IV or PO administration to fasted male Sprague-Dawley rats (N=3/route/dose). Each compound was administered to fasted male Sprague-Dawley rats as a single dose of 1 mg/kg (IV) or 5 mg/kg (PO). For IV dosing, each compound was formulated in 10% DMA/15% Solutol/75% HPβ-CD (20%) as a 1 mg/mL solution for IV (1 mL/kg) and for PO (5 mL/kg) administrations.
Blood samples (0.250 mL) were collected into EDTA tubes then processed to generate plasma samples. Blood samples were collected at pre-dose, 0.083, 0.25, 0.5, 1, 2, 4, 8 and 24 hours post-dose administration. Plasma concentrations of each compound were determined using LC-MS/MS with a lower limit of quantitation of 1.0 ng/mL. The pharmacokinetic parameters were determined by non-compartmental methods using WinNonlin.
The pharmacokinetic parameters of each compound were determined by non-compartmental analysis (Model 201 for IV administration and Model 200 for PO administration) using WinNonlin Version 6.4 (Pharsight, Mountain View, Calif.). The area under the curve from the time of dosing to the last measurable concentration, AUC(0-t), was calculated by the linear trapezoidal rule. The area under the concentration-time curve extrapolated to infinity, AUC(0-∞), was calculated as follows: AUC(0-∞)=AUC(0-t)+Clast/k
Where Clast is the last measurable concentration and k is the first order rate constant associated with the terminal elimination phase, estimated by linear regression of log concentration versus time. The half-life (T1/2) of the terminal elimination phase was estimated based on the following equation: T1/2=0.693/k
K was determined based on at least three timepoints with R^2≥0.9. Additional parameters were calculated as follows: CL=Dose/AUC(0-∞)
Where CL is the clearance of An2H compound in L/hr/kg, Dose is the administered dose in mg/kg. Mean residence time (MRT) was calculated as follows: MRT=AUMC(0-∞)/AUC(0-∞)
Where area under the first moment curve extrapolated to infinity (AUMC(0-∞)) was calculated as follows: AUMC(0-∞)=AUMClast+tlast*Clast/k+Clast/k^2
The steady state volume of distribution (Vss) was calculated as follows: Vss=CL×MRT.
The oral bioavailability based on AUC(0-t) was calculated as follows: F (%)=AUCPO/AUCIV×DoseIV/DosePO×100. For IV administration, the initial concentration, Co is reported and is an extrapolated value. For PO administration, the maximum concentration, Cmax is report and is an observed value.

[3] = as above; type: in vivo, Sprague-Dawley rats; settings: rat; for Cmax: read-out: C0 or Cmax (ng/mL): Cmax; for half-life: read-out: T½ (converted)
[4] = tested on: subcutaneous Calu-6 (lung cancer) xenograft; assay: In Vivo Cancer Xenograft Assay, Calu-6; parameters: species or system nude mice; settings: 5 or 10 mg/kg daily IP
Experimental: Compound F was evaluated for in vivo therapeutic efficacy in the treatment of subcutaneous HCT-116 (colon cancer) and Calu-6 (lung cancer) xenograft models in nude mice.
Each mouse was inoculated subcutaneously at the flank region with either HCT-116 or Calu-6 tumor cells ([…]) in 0.1 ml of 1×PBS mixed with Matrigel (1:1) for tumor development and xenotransplantation.
Twenty (20) animals with approx […] tumors were selected for HCT-116 follow up experiment and randomly placed into Groups 1, 2, 3, and 4, wherein Group 1 was for mice administered with a vehicle negative control; Group 2 was positive control of Mice treated with Bevacizumab at 5 mg/kg every three days; Group 3 was mice treated with 5 mg/kg of Compound f daily for up to 20 days; and Group 4 was mice treated with 10 mg/kg of Compound F daily for up to 20 days. The vehicle with or without drug was administered to the mouse by intraperitoneal injection. […]
After tumor cells inoculation, the animals were checked daily for morbidity and mortality. […] Death and observed clinical signs were recorded. Tumor volumes were measured every three days in two dimensions using an electronic caliper, and the volume data are expressed in mm^3 using the formula: V=0.5 a×b2 where a and b are the long and short diameters of the tumor, respectively. Tumor volume average was then recorded for each day for groups 1-4 until day 26. […]

[5] = male, Sprague-Dawley, plasma, PO 5 mg/kg
[6] = male, Sprague-Dawley, plasma, PO 5 mg/kg, read-out: F (%) oral bioavailability
[7] = male, Sprague-Dawley, plasma, iv, 1 mg/kg, IV bolus 1 mg/kg
[8] = male, Sprague-Dawley, plasma, po, 5 mg/kg, PO 5 mg/kg
[9] = male, Sprague-Dawley, plasma, IP 3 mg/kg

| SMILES | half-life at 1 μM [1] [h] | AUC(0-t) ([2]; IV bolus 1 mg/kg) [ng·h/mL] | clearance ([2]; IV bolus 1 mg/kg) [mL/min/kg] | C0 (back-extrapolated initial plasma concentration after IV dose) ([2]; IV bolus 1 mg/kg) [ng/mL] | AUC(0-t) ([2]; PO 5 mg/kg) [ng·h/mL] | Vd ([2]; IV bolus 1 mg/kg) [L/kg] | Vss ([2]; IV bolus 1 mg/kg) [L/kg] | Tmax [3, 5] [h] | Cmax [3, 5] [ng/mL] | bioavailability [3, 6] [%] | half-life [3, 7] [h] | half-life [3, 8] [h] | Oral Bioavilability (PO PK) F [3] | further results |
| --- | --- | --- | --- | --- | --- | --- | --- | --- | --- | --- | --- | --- | --- | --- |
| O=C(Nc1nc(NC(=O)c2ccccc2)n(-c2ccccc2)n1)c1ccccc1 [Compound A, N,N′-(1-phenyl-1H-1,2,4-triazole-3,5-diyl)dibenzamide] | 2.52 | 1100 | 15.7 | 4520 | 371 | 0.38 | 0.381 | 0.417 | 249 | 6.85 | 0.85 | 1.6 |  | bioavailability ([3]; male, Sprague-Dawley, plasma, IV bolus 1 mg/kg, read-out: F (%)): 100%; T½ ([3]; PO 5 mg/kg, 5 mg/kg): 1.62 h |
| O=C(/C=C/c1ccccc1)Nc1nc(NC(=O)c2ccccc2)nn1-c1ccccc1 [Compound C, N-(5-cinnamamido-1-phenyl-1H-1,2,4-triazol-3-yl)benzamide] | 1.3 | 1030 | 16.6 | 3980 | 114 | 0.42 | 0.416 | 0.38 | 50.5 | 2.4 | 0.71 | 2.3 | F = 2% |  |
| Cc1ccccc1C(=O)Nc1nc(NC(=O)c2ccccc2C)n(-c2ccccc2)n1 [Compound F, 2-methyl-N-[5-[(2-methylbenzoyl)amino]-1-phenyl-1,2,4-triazol-3-yl]benzamide] | 9.63 | 4270 | 4.03 | 5980 |  | 0.406 |  |  |  |  | 2.5 |  |  | delay of subcutaneous Calu-6 tumor growth [4]: effective of delaying growth; AUC(0-t) [3, 9]: 9590 ng·h/mL; Tmax [3, 9]: 1.3 h; Cmax [3, 9]: 1470 ng/mL; bioavailability ([3]; male, Sprague-Dawley, plasma, IP 3 mg/kg, read-out: F systemic bioavailability): 75%; half-life ([3]; male, Sprague-Dawley, plasma, ip, 3 mg/kg, IP 3 mg/kg): 3.2 h |

The next lines start with results.

| half-life at 1 μM [1] [h] | AUC(0-t) ([2]; IV bolus 1 mg/kg) [ng·h/mL] | clearance ([2]; IV bolus 1 mg/kg) [mL/min/kg] | C0 (back-extrapolated initial plasma concentration after IV dose) ([2]; IV bolus 1 mg/kg) [ng/mL] | AUC(0-t) ([2]; PO 5 mg/kg) [ng·h/mL] | Vd ([2]; IV bolus 1 mg/kg) [L/kg] | Vss ([2]; IV bolus 1 mg/kg) [L/kg] | Tmax [3, 5] [h] | Cmax [3, 5] [ng/mL] | bioavailability [3, 6] [%] | half-life [3, 7] [h] | half-life [3, 8] [h] | Oral Bioavilability (PO PK) F [3] | SMILES | further results |
| --- | --- | --- | --- | --- | --- | --- | --- | --- | --- | --- | --- | --- | --- | --- |
|  | 1370 | 12.2 | 6740 | 410 | 0.4 | 0.401 | 1.33 | 91 | 6.2 | 0.69 | 1.7 | F = 6% | Cc1ccccc1C(=O)Nc1nc(NC(=O)c2ccccc2)n(-c2ccccc2)n1 [Compound H] |  |
|  | 902 | 18.4 | 2120 | 172 | 0.71 | 0.707 | 0.42 | 52.4 | 4 | 0.6 | 2.1 | F = 4% | Cc1ccccc1C(=O)Nc1nc(NC(=O)c2ccccc2)nn1-c1ccccc1 [Compound K, N-(5-benzamido-2-phenyl-1,2,4-triazol-3-yl)-2-methyl-benzamide] |  |
| 0.642 |  |  |  |  |  |  |  |  |  |  |  |  | O=C(Nc1nc(Nc2ncnc3ccccc23)n(-c2ccccc2)n1)c1ccccc1 [Compound L, N-[1-phenyl-5-(quinazolin-4-ylamino)-1,2,4-triazol-3-yl]benzamide] |  |
| 0.115 |  |  |  |  |  |  |  |  |  |  |  |  | O=C(/C=C/c1ccccc1)Nc1nc(NC(=O)c2ccccc2)nn1-c1ccccn1 [Compound U1] |  |
